Reference: PMC9554092, “Self-assembled peptide-paclitaxel nanoparticles for enhancing therapeutic efficacy in colorectal cancer” (Frontiers in Bioengineering and Biotechnology, 2022)

What was measured:
[1] = tested on: colorectal cancer patient-derived xenografts (PDX); experiment: In vivo therapeutic efficacy in CRC patient-derived xenograft (PDX) model; conditions: CRC PDX mice
Method: (§1) The therapeutic efficacy of was evaluated in PDX mice model. When the tumor volume reached about 100 mm3, mice were randomly assigned into four groups (six mice per group) and intravenously administered with DMSO, free PTX, Rev-PTX NPs and LPK-PTX NPs respectively at an equivalent dose of 0.8 mg/kg PTX every 3 days. Total mice body weights and tumor sizes were recorded every 3 days. At the end of the observation, tumors and major organs including heart, liver, spleen, lung, colon and kidney were isolated, […] and subjected to hematoxylin and eosin (H&E) and Ki-67 staining using standard protocols for histopathological analysis.

[2] = Systemic toxicity in the PDX model (body weight, H&E of major organs); type: in vivo; conditions: PDX mice
Method: as §1

HCT116 cells = experiment: Cell apoptosis, Annexin V-Alexa Fluor488/PI flow cytometry; type: cell-based, human; conditions: HCT116, PTX concentration 5 μg/ml, 48 h, representative result
Method: HCT116 cells were seeded in six-well plates at a density of 1 × 10^4 cells per well and incubated at 37°C until a confluence of 80%. The cells were treated with PTX, Rev-PTX NPs, LPK-PTX NPs at normalized PTX concentration of 5 μg/ml at 37°C for 48 h. Then the cells were trypsinzed, washed, and stained with Annexin V-Alexa Fluor488/PI according to manufacturer’s protocol (Life Technologies, United States). The cell apoptosis was monitored by flow cytometry (BD, CA, United States) and the apoptotic percentage of three independent experiments was analyzed.

CC(=O)O[C@H]1C(=O)[C@@]2(C)[C@H]([C@H](OC(=O)c3ccccc3)[C@]3(O)C[C@H](OC(=O)[C@H](O)[C@@H](NC(=O)c4ccccc4)c4ccccc4)C(C)=C1C3(C)C)[C@]1(OC(C)=O)CO[C@@H]1C[C@@H]2O [PTX, Paclitaxel]
Ki-67 staining of tumor tissue [1]: numerous Ki-67-positive cells
colon histology (HE) [2]: severe crypt destruction
HE-stained sections of colon, lung and liver ([2]; 0.8 mg/kg PTX equivalent i.v. every 3 days): serious damages
early plus late apoptosis (Q3 + Q2) (HCT116 cells): 44.8%
